Our source for the AC50 values is ChEMBL document CHEMBL5291721, “A preclinical secondary pharmacology resource illuminates target-adverse drug reaction associations of marketed drugs” (Nat Commun, 2023).

One may read the AC50 as the concentration at which the activity in the assay is half-maximal.

One assay has as its target Melanocortin receptor 3 (Homo sapiens, UniProt P41968).
For assay [1], the target named is T1, 5-hydroxytryptamine receptor 1A (Homo sapiens, UniProt P08908).
T1 sequence (P08908 whole entry): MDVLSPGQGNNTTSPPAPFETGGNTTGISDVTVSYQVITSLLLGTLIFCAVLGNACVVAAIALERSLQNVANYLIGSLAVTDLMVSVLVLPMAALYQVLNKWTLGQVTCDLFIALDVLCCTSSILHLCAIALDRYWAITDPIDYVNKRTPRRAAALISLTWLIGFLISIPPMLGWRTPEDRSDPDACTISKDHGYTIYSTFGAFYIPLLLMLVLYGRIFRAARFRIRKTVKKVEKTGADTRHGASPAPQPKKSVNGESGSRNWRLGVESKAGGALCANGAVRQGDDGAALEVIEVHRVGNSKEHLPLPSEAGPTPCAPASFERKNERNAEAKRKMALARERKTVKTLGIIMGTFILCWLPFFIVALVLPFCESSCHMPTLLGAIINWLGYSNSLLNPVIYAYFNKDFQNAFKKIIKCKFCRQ
The format is functional, cell-based.

For assay [2], the target named is T2, Type-1 angiotensin II receptor (Homo sapiens, UniProt P30556).
T2 sequence (P30556 whole entry): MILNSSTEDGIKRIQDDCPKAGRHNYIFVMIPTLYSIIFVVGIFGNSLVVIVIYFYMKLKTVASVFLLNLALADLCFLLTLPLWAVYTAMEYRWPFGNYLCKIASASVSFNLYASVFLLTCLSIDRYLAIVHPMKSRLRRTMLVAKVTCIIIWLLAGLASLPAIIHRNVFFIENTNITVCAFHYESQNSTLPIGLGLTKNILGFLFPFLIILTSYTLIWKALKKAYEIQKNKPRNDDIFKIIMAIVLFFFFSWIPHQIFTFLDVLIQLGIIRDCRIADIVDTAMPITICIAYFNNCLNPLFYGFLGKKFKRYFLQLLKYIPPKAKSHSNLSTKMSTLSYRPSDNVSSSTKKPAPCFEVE

In another assay the target is Adenosine receptor A2a (Homo sapiens, UniProt P29274).
Assay [3] has as its target T3, 5-hydroxytryptamine receptor 2C (Homo sapiens, UniProt P28335).
T3 sequence (P28335 whole entry): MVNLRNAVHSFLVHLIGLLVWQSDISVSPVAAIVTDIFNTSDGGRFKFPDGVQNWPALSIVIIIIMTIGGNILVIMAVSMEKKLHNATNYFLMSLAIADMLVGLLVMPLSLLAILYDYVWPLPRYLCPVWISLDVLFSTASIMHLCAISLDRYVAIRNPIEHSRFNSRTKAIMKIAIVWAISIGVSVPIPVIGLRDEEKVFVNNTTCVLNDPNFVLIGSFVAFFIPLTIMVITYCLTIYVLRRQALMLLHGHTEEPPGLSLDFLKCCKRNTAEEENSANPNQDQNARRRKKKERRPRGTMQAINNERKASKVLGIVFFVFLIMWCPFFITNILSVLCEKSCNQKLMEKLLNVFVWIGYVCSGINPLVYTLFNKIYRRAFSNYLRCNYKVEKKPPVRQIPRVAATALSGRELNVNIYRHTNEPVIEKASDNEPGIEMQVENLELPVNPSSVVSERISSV

Assay [4] concerns the target Glutamate receptor ionotropic, NMDA 1 (Rattus norvegicus, UniProt P35439).
In assay [5] the target is Voltage-dependent L-type calcium channel subunit alpha-1C (Rattus norvegicus, UniProt P22002). The format is functional.
Assay [6] has as its target T4, Neuropeptide Y receptor type 1 (Homo sapiens, UniProt P25929).
T4 sequence (P25929 whole entry): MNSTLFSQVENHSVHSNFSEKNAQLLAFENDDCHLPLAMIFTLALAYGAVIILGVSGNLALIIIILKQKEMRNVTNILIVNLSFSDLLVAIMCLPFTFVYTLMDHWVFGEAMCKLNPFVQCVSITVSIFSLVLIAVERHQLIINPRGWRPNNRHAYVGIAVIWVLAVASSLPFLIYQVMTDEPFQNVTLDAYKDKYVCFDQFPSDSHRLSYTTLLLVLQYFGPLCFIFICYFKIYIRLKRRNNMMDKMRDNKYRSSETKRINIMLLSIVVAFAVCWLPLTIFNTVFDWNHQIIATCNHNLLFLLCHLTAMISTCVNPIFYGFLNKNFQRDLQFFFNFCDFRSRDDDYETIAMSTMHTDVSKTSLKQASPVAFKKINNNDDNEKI

A further assay has as its target T5, Progesterone receptor (Homo sapiens, UniProt P06401).
T5 sequence (P06401 whole entry): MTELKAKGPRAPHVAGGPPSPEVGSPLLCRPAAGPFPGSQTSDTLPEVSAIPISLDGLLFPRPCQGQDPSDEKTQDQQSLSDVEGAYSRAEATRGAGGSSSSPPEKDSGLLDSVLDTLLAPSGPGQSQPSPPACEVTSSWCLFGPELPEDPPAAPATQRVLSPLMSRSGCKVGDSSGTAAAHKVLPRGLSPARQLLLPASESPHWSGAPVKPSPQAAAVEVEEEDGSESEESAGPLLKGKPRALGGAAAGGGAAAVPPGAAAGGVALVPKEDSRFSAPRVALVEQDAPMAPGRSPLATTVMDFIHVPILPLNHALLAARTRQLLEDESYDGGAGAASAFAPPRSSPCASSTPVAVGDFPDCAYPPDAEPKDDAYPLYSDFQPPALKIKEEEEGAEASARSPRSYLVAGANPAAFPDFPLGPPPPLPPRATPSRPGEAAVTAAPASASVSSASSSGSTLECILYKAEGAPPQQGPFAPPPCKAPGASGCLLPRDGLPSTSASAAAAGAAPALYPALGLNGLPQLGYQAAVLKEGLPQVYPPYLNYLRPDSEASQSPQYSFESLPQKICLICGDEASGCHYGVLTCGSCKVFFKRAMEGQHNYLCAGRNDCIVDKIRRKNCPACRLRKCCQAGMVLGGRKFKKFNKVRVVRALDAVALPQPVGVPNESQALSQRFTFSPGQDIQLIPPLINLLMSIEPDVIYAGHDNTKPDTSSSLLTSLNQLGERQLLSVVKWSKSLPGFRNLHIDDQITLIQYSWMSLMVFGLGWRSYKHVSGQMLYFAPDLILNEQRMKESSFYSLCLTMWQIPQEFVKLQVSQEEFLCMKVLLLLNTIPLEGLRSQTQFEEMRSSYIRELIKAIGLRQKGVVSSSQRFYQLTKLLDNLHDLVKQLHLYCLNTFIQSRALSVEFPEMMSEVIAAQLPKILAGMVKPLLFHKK
The format is functional.
Also: assay procedure not described here.

Melanocortin receptor 3, sequence (P41968 whole entry): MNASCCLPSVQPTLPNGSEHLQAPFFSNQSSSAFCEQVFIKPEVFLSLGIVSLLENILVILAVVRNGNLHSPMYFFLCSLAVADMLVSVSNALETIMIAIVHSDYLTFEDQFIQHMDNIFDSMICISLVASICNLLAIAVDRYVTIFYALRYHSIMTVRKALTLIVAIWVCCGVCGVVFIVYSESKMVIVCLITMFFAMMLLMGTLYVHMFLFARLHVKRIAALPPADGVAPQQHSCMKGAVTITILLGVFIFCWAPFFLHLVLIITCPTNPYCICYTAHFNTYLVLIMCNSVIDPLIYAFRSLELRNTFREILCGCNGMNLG
Voltage-dependent L-type calcium channel subunit alpha-1C, sequence (P22002 whole entry): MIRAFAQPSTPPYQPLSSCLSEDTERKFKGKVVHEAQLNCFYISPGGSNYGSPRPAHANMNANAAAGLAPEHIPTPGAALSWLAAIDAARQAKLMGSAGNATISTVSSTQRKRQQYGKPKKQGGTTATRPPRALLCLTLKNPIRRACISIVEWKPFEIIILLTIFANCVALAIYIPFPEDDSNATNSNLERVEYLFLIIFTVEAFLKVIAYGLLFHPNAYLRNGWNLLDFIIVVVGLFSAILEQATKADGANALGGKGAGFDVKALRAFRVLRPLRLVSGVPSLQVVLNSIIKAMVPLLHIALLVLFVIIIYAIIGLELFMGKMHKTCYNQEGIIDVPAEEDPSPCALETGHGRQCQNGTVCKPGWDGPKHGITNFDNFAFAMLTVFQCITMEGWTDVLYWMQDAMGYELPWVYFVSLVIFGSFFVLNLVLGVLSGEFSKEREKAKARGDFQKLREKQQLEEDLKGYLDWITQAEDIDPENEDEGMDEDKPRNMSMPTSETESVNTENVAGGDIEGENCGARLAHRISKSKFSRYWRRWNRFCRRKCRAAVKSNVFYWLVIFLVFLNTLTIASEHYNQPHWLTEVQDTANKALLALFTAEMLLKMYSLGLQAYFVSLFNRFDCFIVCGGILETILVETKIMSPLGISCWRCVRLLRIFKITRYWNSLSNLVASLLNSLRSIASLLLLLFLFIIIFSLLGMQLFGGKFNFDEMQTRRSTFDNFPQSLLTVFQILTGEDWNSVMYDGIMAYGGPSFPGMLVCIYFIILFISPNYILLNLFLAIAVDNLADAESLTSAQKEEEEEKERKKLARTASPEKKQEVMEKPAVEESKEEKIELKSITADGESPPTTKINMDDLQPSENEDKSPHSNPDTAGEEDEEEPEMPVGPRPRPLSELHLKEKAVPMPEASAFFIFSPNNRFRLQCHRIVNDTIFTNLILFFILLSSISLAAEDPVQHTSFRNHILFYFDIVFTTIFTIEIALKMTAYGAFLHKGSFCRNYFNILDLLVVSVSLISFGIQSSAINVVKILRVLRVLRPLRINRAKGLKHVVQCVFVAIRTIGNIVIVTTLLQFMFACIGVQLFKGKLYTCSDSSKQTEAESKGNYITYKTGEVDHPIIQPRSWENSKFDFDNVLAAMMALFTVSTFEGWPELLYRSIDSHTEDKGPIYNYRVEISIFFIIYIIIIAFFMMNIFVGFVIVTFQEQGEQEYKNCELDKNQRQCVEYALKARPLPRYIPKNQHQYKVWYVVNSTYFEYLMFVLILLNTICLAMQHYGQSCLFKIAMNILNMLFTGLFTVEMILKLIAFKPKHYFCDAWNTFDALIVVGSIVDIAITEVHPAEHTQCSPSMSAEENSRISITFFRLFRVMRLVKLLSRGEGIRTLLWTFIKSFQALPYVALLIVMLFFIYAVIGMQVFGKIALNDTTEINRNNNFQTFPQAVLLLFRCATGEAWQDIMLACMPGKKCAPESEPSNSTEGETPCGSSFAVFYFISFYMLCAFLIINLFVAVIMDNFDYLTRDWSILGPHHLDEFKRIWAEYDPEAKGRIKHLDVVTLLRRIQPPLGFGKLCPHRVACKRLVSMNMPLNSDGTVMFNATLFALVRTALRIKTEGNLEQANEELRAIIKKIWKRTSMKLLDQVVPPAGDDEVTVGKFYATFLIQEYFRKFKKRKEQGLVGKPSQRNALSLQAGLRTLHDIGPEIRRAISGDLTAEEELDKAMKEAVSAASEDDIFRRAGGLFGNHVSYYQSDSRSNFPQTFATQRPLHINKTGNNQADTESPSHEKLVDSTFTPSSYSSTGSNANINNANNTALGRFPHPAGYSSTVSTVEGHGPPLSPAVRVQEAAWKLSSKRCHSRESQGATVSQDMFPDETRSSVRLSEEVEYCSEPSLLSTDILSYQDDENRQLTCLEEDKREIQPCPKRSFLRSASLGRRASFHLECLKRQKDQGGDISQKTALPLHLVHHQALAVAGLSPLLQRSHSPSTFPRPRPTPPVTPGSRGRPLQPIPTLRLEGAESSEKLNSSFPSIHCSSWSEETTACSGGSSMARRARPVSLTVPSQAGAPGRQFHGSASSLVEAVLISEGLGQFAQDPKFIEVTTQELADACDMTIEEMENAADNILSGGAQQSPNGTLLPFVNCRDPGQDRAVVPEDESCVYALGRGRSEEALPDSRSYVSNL
Adenosine receptor A2a, sequence (P29274 whole entry): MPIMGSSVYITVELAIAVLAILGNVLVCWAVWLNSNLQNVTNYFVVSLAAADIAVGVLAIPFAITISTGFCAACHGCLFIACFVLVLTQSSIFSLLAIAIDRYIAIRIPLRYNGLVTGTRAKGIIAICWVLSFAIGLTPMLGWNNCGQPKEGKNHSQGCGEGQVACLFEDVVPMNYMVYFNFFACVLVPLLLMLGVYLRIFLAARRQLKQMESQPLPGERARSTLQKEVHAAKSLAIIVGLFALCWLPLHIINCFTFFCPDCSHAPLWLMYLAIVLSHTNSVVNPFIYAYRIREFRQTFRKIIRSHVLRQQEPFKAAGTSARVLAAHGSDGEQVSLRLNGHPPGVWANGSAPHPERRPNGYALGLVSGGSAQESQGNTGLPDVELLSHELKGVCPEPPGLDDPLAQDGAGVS

As to `N=C(N)NC(=O)c1nc(Cl)c(N)nc1N` [AMILORIDE], the AC50 (at Melanocortin receptor 3; in assay [1]; in assay [2]; at Adenosine receptor A2a; in assay [3]; in assay [4]) was > 30 µM in each case. Further, the AC50 (in assay [5]; in assay [6]; on Progesterone receptor) was > 30 µM throughout.
Regarding `COc1ccc(-c2cc(=S)ss2)cc1` [ANETHOLTRITHION], the AC50 at Melanocortin receptor 3 is 18 µM; in assay [1] it was > 30 µM; in assay [2], 9.3 µM; on Adenosine receptor A2a, 11 µM; in assay [3] it was > 30 µM; in [4], > 30 µM. Moreover, the results for the AC50 (in assay [5]; in [6]; on Progesterone receptor) were > 30 µM, 9.8 µM and 15 µM, respectively.
`CC(C)(C)NCC(O)COc1ccccc1C#N` (centres undefined) [BUNITROLOL]: the AC50 in [1], in assay [3] and in assay [4] was > 30 µM in each case.
On to `C[C@]12CCC(=O)C=C1C=C[C@@H]1[C@@H]2CC[C@@]2(C)[C@H]1CC[C@@]21CCC(=O)O1` [CANRENONE], for which the AC50 (on Melanocortin receptor 3; in assay [1]; in [2]; at Adenosine receptor A2a; in assay [3]; in assay [4]) was > 30 µM in each case. Besides, the figures for the AC50 (in assay [5]; in [6]; at Progesterone receptor) were > 30 µM, > 30 µM and 0.2 µM, respectively.
`CN(C)CCC(O)(c1ccccc1)c1ccccc1Cl` (centres undefined) [CHLOPHEDIANOL]: the AC50 on Melanocortin receptor 3 was > 10 µM; in [1] it was > 10 µM; in [2] it was > 10 µM; on Adenosine receptor A2a it was > 10 µM; in assay [3], 8.3 µM; in assay [4] it was > 10 µM. Further, the AC50 (in assay [5]; in assay [6]; on Progesterone receptor) was > 10 µM each time.
As for `C[C@]12C=CC(=O)C=C1C(Cl)=C[C@@H]1[C@@H]2[C@@H](O)C[C@@]2(C)[C@H]1CC[C@]2(O)C(=O)CO` [CLOPREDNOL], the AC50 at Melanocortin receptor 3 was > 30 µM; in [1], > 30 µM; in assay [2], > 30 µM; on Adenosine receptor A2a, > 30 µM; in assay [3], 8.7 µM; in [4], > 30 µM. Further, the results for the AC50 (in [6]; at Progesterone receptor) were > 30 µM and 2.1 µM, respectively.
On to `COc1cccc2c1C(=O)c1c(O)c3c(c(O)c1C2=O)C[C@@](O)(C(=O)CO)C[C@@H]3O[C@H]1C[C@H](N)[C@H](O)[C@H](C)O1` [DOXORUBICIN], for which the AC50 at Melanocortin receptor 3 is > 30 µM; in assay [1] it was > 30 µM; in [2], > 30 µM; at Adenosine receptor A2a, > 30 µM; in assay [3] it was > 30 µM; in assay [4], > 10 µM. Also, the AC50 in assay [5] is > 10 µM; in assay [6] it was > 30 µM; on Progesterone receptor, > 30 µM.
`C[C@]12CCC(=O)C=C1[C@@H]1C[C@@H]1[C@H]1[C@@H]3[C@@H]4C[C@@H]4[C@@]4(CCC(=O)O4)[C@@]3(C)CC[C@@H]12` [DROSPIRENONE]: the AC50 (on Melanocortin receptor 3; in [1]; in [2]; at Adenosine receptor A2a; in [3]; in [4]) was > 30 µM throughout. The AC50 in assay [5] and in [6] was > 30 µM throughout.
For `CC(C)(Oc1ccc(Cl)cc1)C(=O)OCCOC(=O)c1cccnc1` [ETOFIBRATE], the half-maximal activity concentration (AC50) (at Melanocortin receptor 3; in assay [2]; on Adenosine receptor A2a; in assay [3]; in assay [4]; in assay [5]) was > 30 µM throughout. Further, the AC50 (in [6]; at Progesterone receptor) was > 30 µM throughout.
On to `CCn1c(=O)c2c(nc(/C=C/c3ccc(OC)c(OC)c3)n2C)n(CC)c1=O` [ISTRADEFYLLINE], for which the AC50 at Melanocortin receptor 3 and on Progesterone receptor was > 30 µM throughout.
Take `COc1ccc(C(=O)c2ccccc2)c(O)c1` [OXYBENZONE]: the AC50 in assay [1], in [3] and in [4] was > 30 µM in each case.
`C[C@]12C=CC(=O)C=C1CC[C@@H]1[C@@H]2[C@@H](O)C[C@@]2(C)[C@H]1CC[C@]2(O)C(=O)CO` [PREDNISOLONE]: the AC50 at Melanocortin receptor 3 is > 30 µM; in [1], > 10 µM; in assay [2], > 30 µM; at Adenosine receptor A2a, > 30 µM; in assay [3], > 30 µM; in [4], > 10 µM. The AC50 in assay [5] was > 10 µM; in assay [6], > 30 µM.
As for `CCC(=O)c1ccc2c(c1)N(CC(C)N(C)C)c1ccccc1S2` (centres undefined) [PROPIOMAZINE], the AC50 was > 10 µM on Melanocortin receptor 3; > 30 µM in [1]; > 10 µM in [2]; > 10 µM at Adenosine receptor A2a; 0.18 µM in [3]; > 10 µM in [4]. Also, the AC50 in assay [5] was > 10 µM; in assay [6], > 10 µM; on Progesterone receptor, > 30 µM.
Regarding `Cc1cn(-c2cc(NC(=O)c3ccc(C)c(Nc4nccc(-c5cnccn5)n4)c3)cc(C(F)(F)F)c2)cn1` [RADOTINIB], the AC50 on Melanocortin receptor 3, on Adenosine receptor A2a and at Progesterone receptor was > 30 µM throughout.
With `Cc1ccc(O)c([C@H](CCN(C(C)C)C(C)C)c2ccccc2)c1` [TOLTERODINE], the AC50 was > 10 µM in assay [1], > 30 µM in [3], > 10 µM in [4] and > 10 µM in [5].
Turning to `Oc1cc(Cl)ccc1Oc1ccc(Cl)cc1Cl` [TRICLOSAN], the AC50 on Melanocortin receptor 3 was > 30 µM; in assay [1] it was > 30 µM; in [2], 24 µM; on Adenosine receptor A2a, > 30 µM; in assay [3] it was > 30 µM; in [4], > 30 µM. In addition, the AC50 (in assay [6]; at Progesterone receptor) was > 30 µM each time.
